Laboratory results reported in US9545453B2, “CXCR4 inhibiting carriers for nucleic acid delivery” (Wayne State University, priority 2011, dated 2017).
“Also recorded” adds a separate entry of the source.

What was measured:
[1] = test system: pDNA; assay: DNA condensation by ethidium bromide exclusion assay; format: physicochemical; details: pH 7.4
Protocol: The ability of P(AMD-CBA) to condense pDNA was determined by ethidium bromide exclusion (EtBr) assay by measuring the changes in EtBr/pDNA fluorescence. pDNA solution at a concentration of 20 μg/mL was mixed with EtBr (1 μg/mL) and fluorescence was measured and set to 100% using an excitation wavelength of 540 nm and an emission wavelength of 590 nm. Fluorescence readings were taken following a stepwise addition of the polycation solution, and the condensation curve for each polycation was constructed.
The ability of P(Cyc-CBA) to condense pDNA was determined by ethidium bromide exclusion (EtBr) assay by measuring the changes in EtBr/pDNA fluorescence. pDNA solution at a concentration of 20 μg/mL was mixed with EtBr (1 μg/mL) and fluorescence was measured and set to 100% using an excitation wavelength of 540 nm and an emission wavelength of 590 nm. Fluorescence readings were taken following a stepwise addition of the polycation solution, and the condensation curve for each polycation was constructed.
At pH 7.4, a w/w ratio above 2 was required for RPA to fully condense the DNA, which was higher than that required in case of RHB (w/w 1) and PEI (w/w 0.5). […] The redox stability of RPA/DNA polyplexes was tested by agarose gel electrophoresis after GSH treatment.

[2] = complexes with nucleic acids
From the text: Ability to condense DNA is a prerequisite for successful polyplex gene delivery. FIG. 1 schematically represents this process.

[3] = molecular target: T1, CXCR4 (Homo sapiens, UniProt P61073); assay: CXCL12-induced intracellular calcium flux (Fluo-3); format: cell-based; details: Fluo-3 calcium indicator, CXCL12 stimulation
From the text: Binding of chemokine CXCL12 to its receptor CXCR4 triggers an intracellular signal transduction cascade comprising a transient increase in cytosolic free calcium.
Target sequence in this assay (P61073 whole entry, species assumed): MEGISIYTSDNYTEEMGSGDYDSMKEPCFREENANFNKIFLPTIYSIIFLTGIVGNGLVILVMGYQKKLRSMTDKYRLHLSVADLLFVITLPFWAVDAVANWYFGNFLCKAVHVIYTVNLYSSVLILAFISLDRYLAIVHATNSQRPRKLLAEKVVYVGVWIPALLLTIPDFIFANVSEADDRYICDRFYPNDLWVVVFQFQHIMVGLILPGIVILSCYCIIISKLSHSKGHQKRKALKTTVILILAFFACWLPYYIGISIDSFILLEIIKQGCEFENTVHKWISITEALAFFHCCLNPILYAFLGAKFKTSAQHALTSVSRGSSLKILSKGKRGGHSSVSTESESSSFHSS

[4] = test system: CXCR4+U2OS cells; assay: Matrigel cell invasion assay towards CXCL12; format: cell-based, Human; details: CXCL12-mediated invasion, 16 h
Protocol: The upper sides of the transwell inserts were coated with 40 μl Matrigel diluted in serum-free medium (v/v 1:3) per insert. The 24-well plates with coated inserts were then placed in 37° C. incubator for 2 h. CXCR4+U2OS cells were trypsinized and resuspended in different concentrations of drugs in serum-free medium for 30 min before adding to the inserts at a final concentration of 10,000 cells in 300 μl medium per insert. 20 nM CXCL12 in serum-free medium as the chemo-attractant was then added to corresponding wells in the companion plate. After 16 h, the non-invaded cells on the upper surface of the inserts were removed with a cotton swab. The invaded cells were then fixed and stained by dipping the inserts into Diff-Quick solution. The images were taken by EVOS ×1 microscope. Five 20× imaging areas were randomly selected for each insert and each sample was conducted in triplicate. Statistical significance of the observed differences in cell invasion was analyzed using non-parametric ANOVA with Dunn's multiple comparison test using GraphPad InStat (v. 3.10). P<0.05 was considered significant.
To further confirm the CXCR4 antagonism of RPA and RPA/DNA polyplexes, the anti-metastatic ability was evaluated by a Matrigel cell invasion assay. […] The DNA dose used in the experiment with the polyplexes (1 μg/mL DNA) was in the range of typical doses used in transfection experiments.

[5] = molecular target: T1, CXCR4; assay: Phorbol myristate acetate-stimulated CXCR4 internalization; format: cell-based; details: 100 ng/mL phorbol myristate acetate
From the text: It has been reported that CXCL12 and phorbol esters trigger CXCR4 internalization through entirely different uptake pathway (Signoret, Oldridge et al. 1997).
Target sequence in this assay (P61073 whole entry): as the sequence (P61073 whole entry, species assumed) above

[6] = Toxicity of copper complexes of P(AMD-CBA) (procedure of example 14); format: cell-based
Protocol: 20,000 cells were seeded per well in 96-well plates 24 hours ahead. The culturing medium was first removed and then replaced with 150 μL of medium containing increasing concentration of the polycations. After 24 hours, the incubation medium was removed and a mixture of 100 μL of fresh serum-free medium and 20 μL of MTS reagent solution was added to each well. The cells were incubated for at 37° C. in CO2 incubator for 2 hours. The absorbance at wavelength 505 nm was then measured to determine cell viability. IC50 values were calculated by Prism Graphpad Software.
Toxicity of polycations was also evaluated by MTS assay in Hep G2 cells and CXCR4+U2OS cells. […] Hep G2 cells were maintained in MEM supplemented with 10% FBS. Human epithelial osteosarcoma U2OS cells stably expressing human CXCR4 receptor fused to the N-terminus of enhanced green fluorescent protein were purchased form Fisher Scientific. The cells were cultured in DMEM supplemented with 2 mM L-Glutamine, 10% FBS, 1% Pen-Strep and 0.5 mg/ml G418. The cells were plated into 96-well microtiter plates at a density of 20,000 cells/well. […] After 2 h incubation, the absorbance was measured spectrophotometrically in Synergy 2 Microplate Reader (BioTek, VT) at a wavelength of 490 nm. The relative cell viability (%) was calculated as [A]sample/[A]untreated×100%.

[7] = test system: CXCR4+U2OS cells; assay: Luciferase transfection in CXCR4+U2OS cells; format: cell-based, Human; details: 100 ng/mL, serum-free medium, 4 h

c1cc(CN2CCCNCCNCCCNCC2)ccc1CN1CCCNCCNCCCNCC1 [AMD3100, 1,1′-[1,4-Phenylenebis(methylene)]bis[1,4,8,11-tetraazacyclotetradecane]]
Decrease in EtBr fluorescence [1]: about 30%
Transfection level [2]: only background levels of transfection
Effect on CXCL12-induced calcium signaling (CXCR4-mediated) [3]: strong antagonistic effect; also recorded: CXCL12 antagonists
Blocked invasion (% of cells) [4]: 75%
Inhibition of phorbol-stimulated CXCR4 internalization [5]: do not inhibit

[Cl][Cu][Cl] [CuCl2]
Toxicity with increasing copper content [6]: No toxicity

CCCCCCCCCCCCCC(=O)O[C@@H]1[C@@H](C)[C@@]2(O)[C@@H](C=C(CO)C[C@]3(O)C(=O)C(C)=C[C@@H]23)[C@@H]2C(C)(C)[C@]12OC(C)=O [PMA, phorbol 12-myristate 13-acetate]
Cytotoxicity under the transfection conditions [7]: No cytotoxicity
